Experiments:
[1] = Liquid; for viscosity: 101.3 kPa; for mass density: 101.33 kPa
[2] = xn = mol fraction of the nth substance listed; settings: 101.3 kPa, Liquid

CCCCO [butan-1-ol]
[1]
Settings | mass density [kg/m3] | viscosity [mPa·s]
293.15 K | – | 2.941
298.15 K | 805.9 | 2.62
303.15 K | – | 2.255
313.15 K | – | 1.754

CCCCO [butan-1-ol] + CCOC(=O)OCC
[2], x2 = 0
Settings | viscosity [mPa·s]
293.15 K | 2.941
298.15 K | 2.62
303.15 K | 2.255
313.15 K | 1.754

CCC(C)O (stereo not given) [butan-2-ol]
[1]
Settings | mass density [kg/m3] | viscosity [mPa·s]
293.15 K | – | 3.619
298.15 K | 802.4 | 3.115
303.15 K | – | 2.503
313.15 K | – | 1.784

CCC(C)O (stereo not given) [butan-2-ol] + CCOC(=O)OCC
[2], x2 = 0
Settings | viscosity [mPa·s]
293.15 K | 3.619
298.15 K | 3.115
303.15 K | 2.503
313.15 K | 1.784

CCOC(=O)OCC [diethyl carbonate]
[1]
Settings | mass density [kg/m3] | viscosity [mPa·s]
293.15 K | – | 0.795
298.15 K | 969.1 | 0.749
303.15 K | – | 0.699
313.15 K | – | 0.623

CCOC(=O)OCC [diethyl carbonate] + CC(C)O
[2]
Settings | viscosity [mPa·s]
293.15 K, x1 = 0.0502 | 1.973
293.15 K, x1 = 0.1001 | 1.67
293.15 K, x1 = 0.203 | 1.27
293.15 K, x1 = 0.3012 | 1.073
293.15 K, x1 = 0.3954 | 0.962
293.15 K, x1 = 0.5021 | 0.886
293.15 K, x1 = 0.6035 | 0.841
293.15 K, x1 = 0.6976 | 0.811
293.15 K, x1 = 0.8048 | 0.794
293.15 K, x1 = 0.9129 | 0.796
293.15 K, x1 = 0.9529 | 0.799
293.15 K, x1 = 1 | 0.795
298.15 K, x1 = 0.049 | 1.766
298.15 K, x1 = 0.0987 | 1.501
298.15 K, x1 = 0.1978 | 1.135
298.15 K, x1 = 0.2945 | 0.94
298.15 K, x1 = 0.3925 | 0.836
298.15 K, x1 = 0.4925 | 0.788
298.15 K, x1 = 0.5939 | 0.763
298.15 K, x1 = 0.7004 | 0.74
298.15 K, x1 = 0.7979 | 0.719
298.15 K, x1 = 0.8967 | 0.717
298.15 K, x1 = 0.9504 | 0.726
298.15 K, x1 = 1 | 0.749
303.15 K, x1 = 0.0522 | 1.468
303.15 K, x1 = 0.099 | 1.277
303.15 K, x1 = 0.1944 | 1.009
303.15 K, x1 = 0.2913 | 0.864
303.15 K, x1 = 0.392 | 0.777
303.15 K, x1 = 0.4763 | 0.733
303.15 K, x1 = 0.5883 | 0.702
303.15 K, x1 = 0.6972 | 0.683
303.15 K, x1 = 0.7854 | 0.68
303.15 K, x1 = 0.889 | 0.684
303.15 K, x1 = 0.9488 | 0.69
303.15 K, x1 = 1 | 0.699
313.15 K, x1 = 0.0506 | 1.148
313.15 K, x1 = 0.0997 | 1.011
313.15 K, x1 = 0.2016 | 0.821
313.15 K, x1 = 0.303 | 0.71
313.15 K, x1 = 0.4008 | 0.661
313.15 K, x1 = 0.4969 | 0.634
313.15 K, x1 = 0.599 | 0.617
313.15 K, x1 = 0.7007 | 0.604
313.15 K, x1 = 0.8011 | 0.594
313.15 K, x1 = 0.903 | 0.596
313.15 K, x1 = 0.9511 | 0.605
313.15 K, x1 = 1 | 0.623

CCOC(=O)OCC [diethyl carbonate] + CCC(C)O
[2]
Settings | viscosity [mPa·s]
293.15 K, x1 = 0.0512 | 2.892
293.15 K, x1 = 0.1031 | 2.341
293.15 K, x1 = 0.2021 | 1.652
293.15 K, x1 = 0.2997 | 1.289
293.15 K, x1 = 0.4023 | 1.092
293.15 K, x1 = 0.5115 | 0.979
293.15 K, x1 = 0.607 | 0.91
293.15 K, x1 = 0.707 | 0.861
293.15 K, x1 = 0.8038 | 0.825
293.15 K, x1 = 0.9089 | 0.804
293.15 K, x1 = 0.9524 | 0.803
293.15 K, x1 = 1 | 0.795
298.15 K, x1 = 0.0509 | 2.485
298.15 K, x1 = 0.101 | 2.001
298.15 K, x1 = 0.202 | 1.379
298.15 K, x1 = 0.3002 | 1.071
298.15 K, x1 = 0.404 | 0.937
298.15 K, x1 = 0.5003 | 0.888
298.15 K, x1 = 0.6008 | 0.858
298.15 K, x1 = 0.6963 | 0.813
298.15 K, x1 = 0.7987 | 0.752
298.15 K, x1 = 0.8999 | 0.709
298.15 K, x1 = 0.9466 | 0.712
298.15 K, x1 = 1 | 0.749
303.15 K, x1 = 0.0517 | 2.023
303.15 K, x1 = 0.1132 | 1.623
303.15 K, x1 = 0.2267 | 1.211
303.15 K, x1 = 0.3316 | 1.021
303.15 K, x1 = 0.4467 | 0.89
303.15 K, x1 = 0.5422 | 0.809
303.15 K, x1 = 0.6426 | 0.739
303.15 K, x1 = 0.7416 | 0.698
303.15 K, x1 = 0.8281 | 0.684
303.15 K, x1 = 0.9196 | 0.691
303.15 K, x1 = 0.9494 | 0.697
303.15 K, x1 = 1 | 0.699
313.15 K, x1 = 0.0511 | 1.503
313.15 K, x1 = 0.1026 | 1.28
313.15 K, x1 = 0.1988 | 0.996
313.15 K, x1 = 0.2955 | 0.83
313.15 K, x1 = 0.4041 | 0.738
313.15 K, x1 = 0.5084 | 0.69
313.15 K, x1 = 0.5983 | 0.662
313.15 K, x1 = 0.6988 | 0.636
313.15 K, x1 = 0.8034 | 0.61
313.15 K, x1 = 0.9022 | 0.601
313.15 K, x1 = 0.9523 | 0.606
313.15 K, x1 = 1 | 0.623

CCOC(=O)OCC [diethyl carbonate] + CCCCCO
[2]
Settings | viscosity [mPa·s]
293.15 K, x1 = 0.0496 | 3.384
293.15 K, x1 = 0.1016 | 2.868
293.15 K, x1 = 0.2034 | 2.125
293.15 K, x1 = 0.3124 | 1.618
293.15 K, x1 = 0.3801 | 1.412
293.15 K, x1 = 0.5085 | 1.162
293.15 K, x1 = 0.6047 | 1.051
293.15 K, x1 = 0.7068 | 0.955
293.15 K, x1 = 0.8058 | 0.88
293.15 K, x1 = 0.9058 | 0.825
293.15 K, x1 = 0.9521 | 0.804
293.15 K, x1 = 1 | 0.795
298.15 K, x1 = 0.0459 | 2.91
298.15 K, x1 = 0.0984 | 2.492
298.15 K, x1 = 0.2067 | 1.857
298.15 K, x1 = 0.3012 | 1.497
298.15 K, x1 = 0.4002 | 1.242
298.15 K, x1 = 0.5091 | 1.067
298.15 K, x1 = 0.5884 | 0.972
298.15 K, x1 = 0.6988 | 0.871
298.15 K, x1 = 0.7986 | 0.802
298.15 K, x1 = 0.9133 | 0.751
298.15 K, x1 = 0.9663 | 0.745
298.15 K, x1 = 1 | 0.749
303.15 K, x1 = 0.0541 | 2.471
303.15 K, x1 = 0.0951 | 2.186
303.15 K, x1 = 0.1968 | 1.664
303.15 K, x1 = 0.292 | 1.356
303.15 K, x1 = 0.3986 | 1.131
303.15 K, x1 = 0.4966 | 0.992
303.15 K, x1 = 0.5963 | 0.88
303.15 K, x1 = 0.6847 | 0.803
303.15 K, x1 = 0.7988 | 0.733
303.15 K, x1 = 0.8885 | 0.706
303.15 K, x1 = 0.9493 | 0.7
303.15 K, x1 = 1 | 0.699
313.15 K, x1 = 0.0505 | 1.97
313.15 K, x1 = 0.1009 | 1.729
313.15 K, x1 = 0.2038 | 1.359
313.15 K, x1 = 0.3044 | 1.12
313.15 K, x1 = 0.4054 | 0.96
313.15 K, x1 = 0.5077 | 0.845
313.15 K, x1 = 0.5969 | 0.771
313.15 K, x1 = 0.71 | 0.697
313.15 K, x1 = 0.81 | 0.65
313.15 K, x1 = 0.9036 | 0.623
313.15 K, x1 = 0.9537 | 0.621
313.15 K, x1 = 1 | 0.623

CCOC(=O)OCC [diethyl carbonate] + CCCCO
[2]
Settings | viscosity [mPa·s]
293.15 K, x1 = 0.051 | 2.5
293.15 K, x1 = 0.1027 | 2.148
293.15 K, x1 = 0.2008 | 1.672
293.15 K, x1 = 0.2978 | 1.376
293.15 K, x1 = 0.4026 | 1.173
293.15 K, x1 = 0.5079 | 1.031
293.15 K, x1 = 0.6014 | 0.944
293.15 K, x1 = 0.7033 | 0.878
293.15 K, x1 = 0.7986 | 0.841
293.15 K, x1 = 0.9031 | 0.814
293.15 K, x1 = 0.951 | 0.81
293.15 K, x1 = 1 | 0.795
298.15 K, x1 = 0.0519 | 2.203
298.15 K, x1 = 0.0993 | 1.899
298.15 K, x1 = 0.1996 | 1.445
298.15 K, x1 = 0.2923 | 1.195
298.15 K, x1 = 0.3989 | 1.03
298.15 K, x1 = 0.5017 | 0.939
298.15 K, x1 = 0.6016 | 0.874
298.15 K, x1 = 0.7043 | 0.815
298.15 K, x1 = 0.8002 | 0.766
298.15 K, x1 = 0.8968 | 0.736
298.15 K, x1 = 0.9471 | 0.734
298.15 K, x1 = 1 | 0.749
303.15 K, x1 = 0.0508 | 1.905
303.15 K, x1 = 0.1004 | 1.642
303.15 K, x1 = 0.2016 | 1.3
303.15 K, x1 = 0.3 | 1.101
303.15 K, x1 = 0.3917 | 0.977
303.15 K, x1 = 0.5032 | 0.87
303.15 K, x1 = 0.597 | 0.794
303.15 K, x1 = 0.7099 | 0.729
303.15 K, x1 = 0.8216 | 0.699
303.15 K, x1 = 0.9035 | 0.697
303.15 K, x1 = 0.9488 | 0.697
303.15 K, x1 = 1 | 0.699
313.15 K, x1 = 0.0506 | 1.535
313.15 K, x1 = 0.1007 | 1.356
313.15 K, x1 = 0.2005 | 1.09
313.15 K, x1 = 0.2975 | 0.926
313.15 K, x1 = 0.4122 | 0.802
313.15 K, x1 = 0.5035 | 0.741
313.15 K, x1 = 0.6084 | 0.691
313.15 K, x1 = 0.7044 | 0.656
313.15 K, x1 = 0.8055 | 0.634
313.15 K, x1 = 0.9016 | 0.618
313.15 K, x1 = 0.9486 | 0.617
313.15 K, x1 = 1 | 0.623
